Test results taken from PubChem BioAssay (NCI).
Where “and” joins values, the source holds several entries; their conditions need not be identical. Identical values can stand only once.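 Compound exposure: 48 hours, 5 concentrations, 96-well plates. Abbreviation: GI50, concentration required for 50% inhibition of growth. TGI marks complete inhibition of growth.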

Assays:
Test in all cases: inhibition of tumour cell growth, NCI panel, 48 h
[1] = system: CAKI-1 renal
[2] = system: DU-145 prostate
[3] = system: HCC-2998 colon
[4] = system: HOP-62 NSCLC
[5] = system: HT29 colon
[6] = system: MDA-MB-231 breast
[7] = system: NCI-H23 lung
[8] = system: NCI-H522 lung
[9] = system: SW-620 colon
[10] = system: SR leukemia

Compound | GI50 [1] | TGI [1] | GI50 [2] | TGI [2] | GI50 [3] | TGI [3] | GI50 [4] | TGI [4] | GI50 [5] | TGI [5] | GI50 [6] | TGI [6] | GI50 [7] | TGI [7] | GI50 [8] | TGI [8] | GI50 [9] | TGI [9] | TGI [10] [µM] | GI50 [10] [µM]
CC1=C([Se]CC(OC(=O)[C@@H](CO)NC(=O)OC(C)(C)C)C(=O)NC(C)(C)C)C(=O)c2ccccc2C1=O (stereo not given in full) | 1.76 µM | 3.39 µM | 1.9 µM | 3.37 µM | 1.82 µM | 3.23 µM | 0.53 µM | 1.86 µM | 2.3 µM | 4.74 µM | 1.62 µM | 3.14 µM | 1.49 µM | 3.2 µM | 1.6 µM | 3.14 µM | 1.77 µM | 3.33 µM |  | 
O=C(Nc1ccccc1Br)c1cccc([N+](=O)[O-])c1O |  | > 43.8 µM |  |  |  | 16.6 µM |  | 9.79 µM |  | > 63.3 µM |  |  |  | 6.31 µM |  | 6.4 µM |  | > 100 µM | 33 | 
CC[C@H](C)n1cc(C)c2c(C(=O)NCc3c(C)cc(C)[nH]c3=O)cc(-c3ccc(N4CCNCC4)nc3)cc21 | 16.1 µM and 15.4 µM | 29.6 µM and 28.8 µM | 14.7 µM and 15.1 µM | 27.9 µM and 28.7 µM | 14.7 µM and 9.46 µM | 30.2 µM and 23.4 µM | 17.1 µM and 14.9 µM | 33.1 µM and 29.8 µM | 5.19 µM and 6.53 µM | 18.4 µM and 20.6 µM | 6.38 µM and 7 µM | 19.5 µM and 20.5 µM | 18 µM and 17.6 µM | 34.3 µM and 34 µM | 17.6 µM and 14 µM | 34.2 µM and 29.5 µM | 10.1 µM and 8.21 µM | 21.8 µM and 22.1 µM |  | 
N#CC(C#N)=CSc1ccccc1 |  | 74.1 µM |  |  |  |  |  | > 100 µM |  | 98.2 µM |  |  |  | > 100 µM |  | 24.5 µM |  | > 100 µM | > 100 | 
O=C(O)CCC1(Br)CCCCC(Br)C1=O (stereo not given) |  | > 100 µM |  |  |  | > 100 µM |  | > 100 µM |  | > 100 µM |  |  |  | > 100 µM |  | > 100 µM |  | > 100 µM |  | 
O=c1[nH]c(SCc2c(Cl)c(Cl)c(Cl)c(Cl)c2Cl)nc(=S)[nH]1 |  | > 100 µM |  | > 100 µM |  |  |  | > 100 µM |  | > 63 µM |  | > 100 µM |  | > 100 µM |  | 34.4 µM |  | > 100 µM | 0.516 | 
O=C(O)C1c2ccccc2C(C(=O)O)c2ccccc21 (stereo not given) |  | > 100 µM |  |  |  | > 100 µM |  | > 100 µM |  | > 100 µM |  |  |  |  |  | > 100 µM |  | > 100 µM | > 100 | 
CCOC(=O)C1=C(C)NC2SC(=O)/C(=C\c3ccccc3)N2C1c1ccccc1 (stereo not given) | > 100 µM | > 100 µM | > 100 µM | > 100 µM | > 100 µM | > 100 µM | > 100 µM | > 100 µM | > 100 µM | > 100 µM | > 100 µM | > 100 µM | > 100 µM | > 100 µM | > 100 µM | > 100 µM | > 100 µM | > 100 µM |  | 
O=C(O)C#CCO |  | > 100 µM |  |  |  |  |  | > 100 µM |  | > 100 µM |  |  |  | > 100 µM |  | > 100 µM |  | > 100 µM |  | 
CCOC(=O)C1=C(C)NC(=O)NC1c1coc2cc(C)cc(C)c2c1=O (stereo not given) |  | > 100 µM |  | > 100 µM |  |  |  | > 100 µM |  | > 100 µM |  | > 100 µM |  | > 100 µM |  | 14.5 µM |  | > 100 µM | > 79.8 | 
COc1ccc2c(=O)c3cc([N+](=O)[O-])ccc3n(C)c2c1 |  | > 100 µM |  | > 100 µM |  | > 100 µM |  |  |  |  |  | > 100 µM |  |  |  | > 100 µM |  | > 100 µM | > 100 | 
O=c1c2ccccc2c(=O)c2c1cc(Cl)c1[nH]c3c([nH]c12)c(Cl)cc1c(=O)c2ccccc2c(=O)c13 |  | > 100 µM |  |  |  | > 100 µM |  | > 100 µM |  | > 100 µM |  |  |  | > 100 µM |  | > 100 µM |  | > 100 µM |  | 
N#CCC(=O)N/N=C1\C(=O)N(c2ccc(Cl)cc2)C(=O)C(=O)C1c1nc2ccccc2o1 (stereo not given) |  | > 100 µM |  |  |  | > 100 µM |  | > 100 µM |  | > 100 µM |  |  |  | > 100 µM |  | > 100 µM |  | > 100 µM | > 100 | 
Clc1ccc(OC2CCO2)cc1Cl (stereo not given) |  | > 100 µM |  |  |  | > 100 µM |  | > 100 µM |  | > 100 µM |  |  |  | > 100 µM |  | > 100 µM |  | 33.6 µM |  | 
Nc1ccccc1NC(=O)c1ccc(CN2CCC/C(=C\c3cccc(Cl)c3)C2=O)cc1 |  |  | 0.432 µM | 25.7 µM | 1.18 µM | 5.7 µM | 0.388 µM | > 100 µM | 0.144 µM | 1.89 µM | 0.584 µM | 7.93 µM | 0.342 µM | 24.2 µM | 0.225 µM | 1.06 µM | 0.0539 µM | > 100 µM | > 100 | 0.156
COC(=O)[C@@]1(C)CC[C@]2(C)CC[C@]3(C)C4=CC=C5C(=CC(=O)C(O)=C5C)[C@]4(C)CC[C@@]3(C)[C@@H]2C1 |  |  | 0.182 µM | 0.382 µM | 0.21 µM | 0.474 µM | 0.483 µM | 1.54 µM | 0.207 µM | 0.445 µM | 0.171 µM | 0.395 µM | 0.235 µM | 0.637 µM | 0.18 µM | 0.435 µM | 0.165 µM | 0.414 µM | 0.564 | 0.19
C/C(=N/NC(=O)C(N)=O)C(CC(C(=O)Nc1ccccc1C)/C(C)=N\NC(=O)C(N)=O)C(=O)Nc1ccccc1C (stereo not given) |  | > 100 µM |  |  |  | > 100 µM |  | > 100 µM |  | > 100 µM |  |  |  | > 100 µM |  | > 100 µM |  | > 100 µM |  | 
COC(=O)C1CCC(Nc2cccc(C(F)(F)F)c2)=N1 (stereo not given) |  | > 100 µM |  |  |  | > 100 µM |  | > 100 µM |  | > 100 µM |  |  |  | > 100 µM |  | > 100 µM |  | > 100 µM |  | 
Cc1cc(NS(=O)(=O)c2ccc(NC(=O)c3cccc4c(Nc5ccc(S(=O)(=O)Nc6cc(C)on6)cc5)c5ccccc5nc34)cc2)no1 |  | > 100 µM |  |  |  |  |  | > 100 µM |  | > 100 µM |  |  |  | > 100 µM |  | 51.7 µM |  | > 100 µM |  | 
CC(=O)OC1C(CCl)OC(N=[N+]=[N-])C(OC(C)=O)C1OC(C)=O (stereo not given) |  | > 100 µM |  |  |  | > 100 µM |  | > 100 µM |  | > 100 µM |  |  |  | > 100 µM |  | > 100 µM |  | > 100 µM |  | 
CCC[CH2][Sn]([CH2]CCC)([O]C(=O)c1nccnc1N)[O]C(=O)c1nccnc1N | 0.226 µM | 1.77 µM |  |  | 1.21 µM | 2.45 µM | 2.12 µM | 3.57 µM | 1.59 µM | 3.05 µM |  |  | 0.573 µM | 1.91 µM | 0.052 µM | 0.18 µM | 0.319 µM | 1.26 µM | 2.35 | 0.294
